In patent US12036190B2, “Methods and compositions for the treatment of cytoplasmic glycogen storage disorders” (Duke University, priority 2015, dated 2024):
Entries after “also recorded” stand apart in the source; their conditions may differ. Where two headings read alike, the source gives them in different places.

What was measured:
GAA knockout (KO) mice = test: β2 agonist with ERT (rhGAA) in GAA-KO mice with Pompe disease; conditions: for glycogen content in skeletal muscle: β2 agonist added to ERT, versus ERT alone; for CI-MPR (M6PR) expression: muscle
[1] = tested on: patients with late-onset Pompe disease; conditions: adjunctive to ERT; cited from earlier work
G6pc−/− knockout mice = test: Bezafibrate treatment of G6pc−/− mice; format: in vivo
Protocol: G6pc−/− knockout mice were administered intraperitoneal injections of bezafibrate 25 mg/kg/day suspended in 10% DMSO/90% PBS IP for 3 days.

[2] = tested on: G6pc siRNA knockdown AML-12 cells; conditions: for Lipid Reduction Scoring, High dose / Lipid Reduction Scoring, Medium dose / Lipid Reduction Scoring, Low dose: Oil Red O, duplicate; for Lipid Reduction Scoring, Medium dose: medium concentration of Table 6; for Lipid Reduction Scoring, Low dose: low concentration of Table 6
From the text: In brief, a wide array of drugs was selected, including those that modulate autophagy via the […] pathway, those that do so through AMPK modulation to act through mTORC1, and those using yet-undetermined pathways. Analysis of additional literature led to the selection of three concentrations of each compound to be tested in cell culture using the G6pc siRNA knockdown AML-12 mouse hepatocyte cell line model of GSD Ia as an initial screen for the drugs.
Drug concentrations were chosen based on similarity to published concentrations in either cell culture models resulting in target effects or autophagy, or in vivo extracellular fluid concentrations following animal treatments. The latter case is noted with the fluid type. Concentrations used in our in vitro AML-12 cell culture treatments are listed as the low, medium, and high concentrations that were screened.
The first test using AML-12 cells was the Oil Red 0 stain to examine the presence of lipid vacuoles in cells given the treatments.
G6pc siRNA knockdown AML-12 cells were given three different doses of each drug treatment. After 72 hours of growth, the media was changed to ketogenic media and appropriate quantities of each drug were added. This was performed in duplicate. Oil Red 0 staining was then performed and bright field images acquired at 10× magnification.
Drug treatments at three doses each were performed on G6pc siRNA knockdown AML-12 cells. Following oil red 0 staining the whole plates were evaluated visually for reductions in lipid accumulation. Treatments were performed in duplicate. —/0/+/++/+++ indicates the degree of improvement, or lipid reduction, caused by the treatment, with + indicating positive benefits.

[3] = tested on: murine model for hepatosteatosis; format: in vivo, mouse
[4] = tested on: mouse primary hepatocytes; test: LC3-II in mouse primary hepatocytes after clenbuterol; format: cell-based; conditions: 24 hours
From the text: (§1) Asterisk indicates p<0.05.
(§2) Thus, clenbuterol, a long-acting β-agonist with proven safety for long-term treatment of mice, represents a leading candidate among drugs to be considered for the manipulation of autophagy in GSD Ia (Table 2).

HepG2 cells = test: LC3-II in HepG2 cells after clenbuterol; format: cell-based
From the text: as §1, §2

autophagy = conditions: Table 4; drugs known to enhance autophagy; cited from earlier work
[5] = tested on: G6pc knockdown AML-12 cells; test: LC3 Western blot of drug-treated G6pc knockdown AML-12 cells; format: cell-based, mouse; conditions: 24 hours; conditions with optimal effects in the Oil Red O screen
Protocol: FIG. 27 illustrates LC3 Western blot of drug-treated G6pc knockdown AML-12 cells. Western blotting was performed on AML-12 cells incubated for 24 hours with the described drug conditions. LC3 was quantified and normalized against each condition's β-actin protein quantification.
In addition to Oil Red O staining, cells were analyzed via Western blots for restored LC3 expression for each drug, under the conditions that had optimal effects in the Oil Red O screen (FIG. 27). Since the Western antibody previously used successfully for rapamycin treatment LC3 blots had been discontinued by the manufacturer, we tested two alternative antibodies and chose the one from Cell Signaling Technologies because it gave the strongest signal-to-noise ratio under our experimental conditions.
Western blotting was performed on AML-12 cells incubated for 24 hours with the described drug conditions. LC3 was quantified and normalized against each condition's β-actin protein quantification.

Compound | Lipid Reduction Scoring, High dose ([2]; high concentration of Table 6) | Lipid Reduction Scoring, Medium dose [2] | Effect (autophagy) | Lipid Reduction Scoring, Low dose [2] | other results
CC(C)(C)NCC(O)c1ccc(O)c(CO)c1 (centres unmarked) [Albuterol, albuterol] |  |  |  |  | glycogen content in skeletal muscle (GAA knockout (KO) mice): lower glycogen content; 6 minute walk test performance [1]: improve the 6 minute walk test performance
CC(C)(Oc1ccc(CCNC(=O)c2ccc(Cl)cc2)cc1)C(=O)O [Bezafibrate, bezafibrate] | ++ | + |  |  | kidney weight as a percentage of total body weight (G6pc−/− knockout mice; bezafibrate 25 mg/kg/day IP, p<0.046): very small but quantitatively significant increase; blood glucose level (G6pc−/− knockout mice; bezafibrate-treated affected mice, below threshold of detection): < 20 mg/dL
CC(C)(C)NCC(O)c1cc(Cl)c(N)c(Cl)c1 (centres unmarked) [Clenbuterol, clenbuterol] |  |  |  |  | autophagy ([3]; murine model for hepatosteatosis): induce autophagy; hepatosteatosis ([3]; preclinical experiments): reduced hepatosteatosis; muscle hypertrophy (GAA knockout (KO) mice; GAA-KO mice): induce muscle hypertrophy; CI-MPR (M6PR) expression (GAA knockout (KO) mice; GAA-KO mice): enhance CI-MPR expression; CI-MPR (M6PR) expression (GAA knockout (KO) mice; GAA-KO mice, listed as clenbuterol): increase the expression of CI-MPR; also recorded: increased CI-MPR expression; also recorded: enhancing M6PR expression; uptake of rhGAA (GAA knockout (KO) mice; preclinical experiments): increased the uptake of rhGAA; glycogen content in skeletal muscle (GAA knockout (KO) mice): lower glycogen content; also recorded: decreased glycogen storage; LC3-II [4]: increases LC3-II; lowest concentration at which LC3-II is increased (HepG2 cells; 24 hours): 300 nM; LC3-II (HepG2 cells; 24 hours after addition): increases LC3-II
CN(C)C(=N)N=C(N)N [Metformin] | 0 |  | Activated autophagy, activated AMPK in vitro | + | 
CN(C)c1ccc2nc3ccc(=[N+](C)C)cc-3sc2c1 [Methylene Blue, Methylene blue] | − − − | − − | Activated autophagy, inhibited hepatosteatosis | + | 
CC#C[C@]1(O)CC[C@H]2[C@@H]3CCC4=CC(=O)CCC4=C3[C@@H](c3ccc(N(C)C)cc3)C[C@@]21C [Mifepristone] | ++ | + (Spotty ++) | Activated autophagy, inhibited FXR | + | cell survival, High dose [2]: Great survival; LC3 normalized against β-actin (Western blot) [5]: increase in LC3 autophagic marker
Oc1ccc(C=Cc2cc(O)cc(O)c2)cc1 [Resveratrol] | − − − | 0 (Spotty ++) | Enhanced FAO , reduced | + | 
OC[C@H]1O[C@H](O[C@H]2O[C@H](CO)[C@@H](O)[C@H](O)[C@H]2O)[C@H](O)[C@@H](O)[C@@H]1O [Trehalose] |  | − − | Stimulated autophagy | + | cell survival, High dose [2]: High death
COc1ccc(CCN(C)CCCC(C#N)(c2ccc(OC)c(OC)c2)C(C)C)cc1OC (centres unmarked) [Verapamil] | − − | + | Induced autophagy, reduced cytosolic calcium |  | cell survival, High dose ([2]; high concentration of Table 6): Very high death
O=C(O)CCCCC1CCSS1 (stereo not drawn) [α-Lipoic acid, α-lipoic acid] | 0 |  | Activated autophagy, reduced intercellular | + | 
Cc1c(C)c2c(c(C)c1O)CC[C@@](C)(CCC[C@H](C)CCC[C@H](C)CCCC(C)C)O2 [α-Tocopherol] |  | − (Spotty ++) |  | 0 (Spotty +) | 
Thyroid hormone |  |  | Increased autophagy, reduced steatosis |  | 
